PubChem BioAssay AID210 (DTP/NCI, 2004)
“And” between values parts separate entries of the source, which are not always exact repeats. Equal values may be shown once. Toxic doses and inconclusive results are not listed.

Test system: CD2F1 mice, ip Colon 26 adenocarcinoma, median survival T/C
Assay: NCI In Vivo Anticancer Drug Screen. Data for tumor model Colon 26 Adenocarcinoma (intraperitoneal) in CD2F1 (CDF1) mice
Settings: endpoint: median survival time, higher = longer survival
Method: The antitumor activity of compounds was measured in mice bearing transplantable tumors. Survival or tumor size were measured and the results are expressed as the measurement made in the treated group (T) divided by the measurement made in the vehicle treated control group (C). The tumor model used in this assay is Colon 26 Adenocarcinoma (intraperitoneal) in CD2F1 (CDF1) mice

[1] = dose: 12.5 mg/kg/injection, schedule: Q04DX003 (ip), vehicle: saline with Tween-80
[2] = dose: 25.0 mg/kg/injection, schedule: Q04DX003 (ip), vehicle: saline with Tween-80
[3] = dose: 50.0 mg/kg/injection, schedule: Q04DX003 (ip), vehicle: saline with Tween-80
[4] = dose: 100.0 mg/kg/injection, schedule: Q04DX003 (ip), vehicle: saline with Tween-80
[5] = dose: 200.0 mg/kg/injection, schedule: Q04DX003 (ip), vehicle: saline with Tween-80
[6] = dose: 400.0 mg/kg/injection, schedule: Q04DX003 (ip), vehicle: saline with Tween-80
[7] = dose: 6.25 mg/kg/injection, schedule: Q04DX003 (ip), vehicle: Klucel (hydroxypropylcellulose) (HPC)
[8] = dose: 12.5 mg/kg/injection, schedule: Q04DX003 (ip), vehicle: Klucel (hydroxypropylcellulose) (HPC)
[9] = dose: 25.0 mg/kg/injection, schedule: Q04DX003 (ip), vehicle: Klucel (hydroxypropylcellulose) (HPC)
[10] = dose: 50.0 mg/kg/injection, schedule: Q04DX003 (ip), vehicle: Klucel (hydroxypropylcellulose) (HPC)
[11] = dose: 100.0 mg/kg/injection, schedule: Q04DX003 (ip), vehicle: Klucel (hydroxypropylcellulose) (HPC)
[12] = dose: 200.0 mg/kg/injection, schedule: Q04DX003 (ip), vehicle: Klucel (hydroxypropylcellulose) (HPC)

COc1c(O)c2c(c3cc(C(=O)N4CCc5c4c(O)c(OC)c4[nH]c(C(=O)N6CC7CC78C6=CC(=O)c6[nH]cc(C)c68)cc54)[nH]c13)CCN2C(N)=O (configuration not stated)
T/C (dose: 6.3 micrograms/kg/injection, schedule: Q01DX009 (ip), vehicle: saline): 104 % of control
T/C (dose: 12.5 micrograms/kg/injection, schedule: Q01DX009 (ip), vehicle: saline): 99 % of control
T/C (dose: 25.0 micrograms/kg/injection, schedule: Q01DX009 (ip), vehicle: saline): 115 % of control
T/C (dose: 50.0 micrograms/kg/injection, schedule: Q01DX009 (ip), vehicle: saline): 150 % of control
T/C (dose: 100.0 micrograms/kg/injection, schedule: Q01DX009 (ip), vehicle: saline): 123 % of control

COc1cccc2c1C(=O)c1c(O)c3c(c(O)c1C2=O)C[C@@](O)(C(=O)CO)C[C@@H]3OC1CC(N(C)C)C(O)C(C)O1 (some centres not stated)
T/C (dose: 2.16 mg/kg/injection, schedule: Q04DX003 (ip), vehicle: water): 103 % of control
T/C (dose: 5.6 mg/kg/injection, schedule: Q07DX003 (iv), vehicle: water): 107 % of control
T/C (dose: 9.0 mg/kg/injection, schedule: Q07DX003 (iv), vehicle: water): 101 % of control
T/C (dose: 14.0 mg/kg/injection, schedule: Q07DX003 (iv), vehicle: water): 92 % of control

O=Cc1ccc(C(Cl)(Cl)Cl)cc1
T/C [1]: 103 % of control and 107 % of control
T/C [2]: 106 % of control and 109 % of control
T/C [3]: 114 % of control and 98 % of control
T/C [4]: 96 % of control
T/C [5]: 98 % of control
T/C [6]: 103 % of control

CCc1c(CC(=O)O)c2cc(C)ccc2n1Cc1ccc(Cl)cc1
T/C [7]: 89 % of control
T/C [8]: 95 % of control
T/C [9]: 97 % of control
T/C [10]: 100 % of control
T/C [11]: 111 % of control

Cc1c2ccncc2c(C)c2c1[nH]c1ccccc12
T/C (dose: 12.5 mg/kg/injection, schedule: Q04DX002 (ip), vehicle: Klucel (hydroxypropylcellulose) (HPC)): 158 % of control
T/C (dose: 12.5 mg/kg/injection, schedule: Q04DX002 (ip), vehicle: saline): 122 % of control
T/C [8]: 186 % of control
T/C [1]: 112 % of control
T/C (dose: 25.0 mg/kg/injection, schedule: Q04DX002 (ip), vehicle: saline): 156 % of control
T/C [9]: 263 % of control
T/C [2]: 152 % of control
T/C (dose: 50.0 mg/kg/injection, schedule: Q04DX002 (ip), vehicle: Klucel (hydroxypropylcellulose) (HPC)): 158 % of control
T/C [10]: 242 % of control
T/C (dose: 100.0 mg/kg/injection, schedule: Q04DX002 (ip), vehicle: Klucel (hydroxypropylcellulose) (HPC)): 170 % of control
T/C (dose: 100.0 mg/kg/injection, schedule: Q04DX002 (ip), vehicle: saline): 150 % of control
T/C [11]: 242 % of control
T/C [4]: 165 % of control
T/C (dose: 200.0 mg/kg/injection, schedule: Q04DX002 (ip), vehicle: saline): 156 % of control
T/C [5]: 214 % of control

O=P1(NCCCl)OCCCN1CCCl (configuration not stated)
T/C (dose: 12.5 mg/kg/injection, schedule: Q04DX003 (ip), vehicle: water): 106 % of control
T/C (dose: 25.0 mg/kg/injection, schedule: Q04DX003 (ip), vehicle: water): 113 % of control
T/C (dose: 200.0 mg/kg/injection, schedule: Q04DX003 (ip), vehicle: water): 188 % of control

COC(C(=O)C(O)C(C)O)C1CC2C=C3C=C(OC4CC(OC5CC(O)C(OC)C(C)O5)C(OC(C)=O)C(C)O4)C(C)C(=O)C3=C(O)C2=C(O)C1OC1CC(OC2CC(OC3CC(C)(O)C(O)C(C)O3)C(O)C(C)O2)C(O)C(C)O1 (configuration not stated)
T/C (dose: 0.5 mg/kg/injection, schedule: Q04DX003 (ip), vehicle: saline with Tween-80): 100 % of control
T/C (dose: 1.0 mg/kg/injection, schedule: Q04DX003 (ip), vehicle: saline with Tween-80): 99 % of control
T/C (dose: 2.0 mg/kg/injection, schedule: Q04DX003 (ip), vehicle: saline with Tween-80): 99 % of control
T/C (dose: 4.0 mg/kg/injection, schedule: Q04DX003 (ip), vehicle: saline with Tween-80): 96 % of control
T/C (dose: 8.0 mg/kg/injection, schedule: Q04DX003 (ip), vehicle: saline with Tween-80): 102 % of control

CCOC(=O)C1C2OC(=O)C(C(=O)C2CN(CCCl)CCCl)C1C1CC=C(CC2=CCC(C3C4C(=O)OC(C(CN(CCCl)CCCl)C4=O)C3C(=O)OCC)CC2)CC1 (configuration not stated)
T/C [11]: 216 % of control
T/C [12]: 232 % of control

CCOC(=O)c1ccc(NC(=O)Nc2nccs2)cc1
T/C (dose: 12.5 mg/kg/injection, schedule: Q04DX002 (ip), vehicle: saline with Tween-80): 97 % of control
T/C (dose: 25.0 mg/kg/injection, schedule: Q04DX002 (ip), vehicle: saline with Tween-80): 105 % of control
T/C (dose: 50.0 mg/kg/injection, schedule: Q04DX002 (ip), vehicle: saline with Tween-80): 95 % of control
T/C (dose: 100.0 mg/kg/injection, schedule: Q04DX002 (ip), vehicle: saline with Tween-80): 106 % of control
T/C (dose: 200.0 mg/kg/injection, schedule: Q04DX002 (ip), vehicle: saline with Tween-80): 102 % of control
T/C (dose: 400.0 mg/kg/injection, schedule: Q04DX002 (ip), vehicle: saline with Tween-80): 110 % of control

Clc1ccc(C(c2ccccc2Cl)C(Cl)Cl)cc1 (configuration not stated)
T/C [2]: 110 % of control
T/C [3]: 98 % of control
T/C [4]: 96 % of control
T/C [5]: 104 % of control
T/C [6]: 96 % of control

Cc1ccc(S(=O)(=O)N/N=C/C(=O)O)cc1
T/C [1]: 174 % of control
T/C [2]: 177 % of control
T/C [3]: 212 % of control
T/C [4]: 196 % of control
T/C [5]: 193 % of control

C=C1C(=O)OC2CC1CCC1(C)OC1CCC(C)=CCCC2(C)O (configuration not stated)
T/C (dose: 22.5 mg/kg/injection, schedule: Q04DX002 (ip), vehicle: Klucel (hydroxypropylcellulose) (HPC)): 105 % of control
T/C (dose: 45.0 mg/kg/injection, schedule: Q04DX002 (ip), vehicle: Klucel (hydroxypropylcellulose) (HPC)): 97 % of control
T/C (dose: 90.0 mg/kg/injection, schedule: Q04DX002 (ip), vehicle: Klucel (hydroxypropylcellulose) (HPC)): 89 % of control

CN(Cc1cnc2nc(N)nc(N)c2n1)c1c(Cl)cc(C(=O)NC(CCC(=O)O)C(=O)O)cc1Cl (configuration not stated)
T/C [8]: 105 % of control
T/C [9]: 102 % of control
T/C [10]: 104 % of control
T/C [11]: 104 % of control
T/C [12]: 118 % of control

CC1OC(=O)C(C(C)C)NC(=O)C(C(C)C)OC(=O)C(C(C)C)NC(=O)C(C)OC(=O)C(C(C)C)NC(=O)C(C(C)C)OC(=O)C(C(C)C)NC(=O)C(C)OC(=O)C(C(C)C)NC(=O)C(C(C)C)OC(=O)C(C(C)C)NC1=O (configuration not stated)
T/C (dose: 0.75 mg/kg/injection, schedule: Q04DX003 (ip), vehicle: Klucel (hydroxypropylcellulose) (HPC)): 181 % of control
T/C (dose: 1.5 mg/kg/injection, schedule: Q04DX003 (ip), vehicle: Klucel (hydroxypropylcellulose) (HPC)): 186 % of control
T/C (dose: 3.0 mg/kg/injection, schedule: Q04DX003 (ip), vehicle: Klucel (hydroxypropylcellulose) (HPC)): 200 % of control
T/C (dose: 6.0 mg/kg/injection, schedule: Q04DX003 (ip), vehicle: Klucel (hydroxypropylcellulose) (HPC)): 193 % of control
T/C (dose: 12.0 mg/kg/injection, schedule: Q04DX003 (ip), vehicle: Klucel (hydroxypropylcellulose) (HPC)): 165 % of control

CCOC(=O)Nc1cc2c(c(N)n1)N=C(CN(C)c1ccccc1)CN2
T/C [7]: 108 % of control
T/C [9]: 177 % of control
T/C [10]: 119 % of control

O=c1[nH]c(=O)n(C2CC(O)C(CO)O2)cc1F (configuration not stated)
T/C (dose: 80.0 mg/kg/injection, schedule: Q07DX003 (ip), vehicle: saline): 155 % of control
T/C (dose: 120.0 mg/kg/injection, schedule: Q07DX003 (ip), vehicle: saline): 161 % of control and 171 % of control
T/C (dose: 190.0 mg/kg/injection, schedule: Q07DX003 (ip), vehicle: saline): 150 % of control and 167 % of control
T/C (dose: 280.0 mg/kg/injection, schedule: Q07DX003 (ip), vehicle: saline): 167 % of control and 169 % of control

NC(=O)c1cn(C2OC(CO)C(O)C2O)c2ncnc(N)c12 (configuration not stated)
T/C (dose: 2.0 mg/kg/injection, schedule: Q04DX003 (ip), vehicle: Klucel (hydroxypropylcellulose) (HPC)): 156 % of control
